Test: molar heat capacity at constant pressure
Conditions: 101.33 kPa, Crystal, Vacuum adiabatic calorimetry

CC(C)(C)c1ccc(-c2ccccc2)cc1 [4-(1,1-dimethylethyl)-1,1'-biphenyl]
Conditions | molar heat capacity at constant pressure [J/K/mol]
8.3 K | 2.522
8.57 K | 2.757
9.11 K | 3.228
9.63 K | 3.765
9.89 K | 4.01
11.01 K | 5.257
11.39 K | 5.703
11.77 K | 6.312
12.15 K | 6.72
12.53 K | 7.182
12.92 K | 7.664
13.28 K | 8.377
13.65 K | 8.833
14.02 K | 9.436
14.39 K | 9.935
14.75 K | 10.39
15.11 K | 10.96
15.48 K | 11.37
15.83 K | 12.26
16.19 K | 12.78
16.55 K | 13.21
16.91 K | 13.77
17.27 K | 14.49
17.62 K | 15.23
17.98 K | 15.86
18.33 K | 16.18
18.68 K | 16.71
19.03 K | 16.98
19.38 K | 17.88
19.73 K | 18.48
20.08 K | 19.01
20.76 K | 20.23
21.53 K | 21.57
22.31 K | 22.77
23.08 K | 23.92
23.85 K | 25.18
24.62 K | 26.43
25.38 K | 27.38
26.14 K | 28.32
26.9 K | 30.11
27.66 K | 31.35
28.42 K | 32.53
29.17 K | 33.54
29.93 K | 34.42
30.68 K | 35.96
31.43 K | 37.32
32.19 K | 38.43
32.96 K | 38.73
33.71 K | 40.37
34.46 K | 41.38
35.21 K | 42.08
35.96 K | 43.44
36.71 K | 44.59
37.46 K | 45.86
38.21 K | 46.57
38.96 K | 47.65
39.71 K | 48.45
40.46 K | 49.16
41.21 K | 50.62
41.95 K | 51.64
42.7 K | 52.5
43.45 K | 53.06
44.2 K | 53.77
44.95 K | 55.03
45.69 K | 55.67
46.44 K | 57.1
47.19 K | 57.29
47.93 K | 58.61
48.68 K | 59.76
49.43 K | 60.29
50.18 K | 60.84
50.92 K | 61.9
51.67 K | 62.56
52.42 K | 63.33
53.16 K | 64.3
53.91 K | 65.39
54.65 K | 65.94
55.4 K | 66.72
56.14 K | 67.31
56.89 K | 68.21
57.64 K | 68.36
58.38 K | 69.38
59.12 K | 69.98
59.86 K | 70.84
60.61 K | 71.8
61.35 K | 72.22
62.09 K | 73.3
62.83 K | 73.97
63.57 K | 75.16
64.31 K | 75.92
65.06 K | 76.6
65.8 K | 77.49
66.54 K | 77.97
67.27 K | 79.07
68.02 K | 79.18
68.76 K | 79.62
69.49 K | 80.06
70.22 K | 80.55
71.11 K | 81.26
72.16 K | 81.97
73.2 K | 83.77
74.24 K | 85.78
75.29 K | 87.62
76.33 K | 89.61
77.37 K | 91.7
78.41 K | 93.86
78.6 K | 93.38
79.46 K | 95.29
79.89 K | 95.59
80.5 K | 96.68
80.92 K | 97.16
81.55 K | 97.38
81.96 K | 98.92
82.59 K | 99.16
82.99 K | 99.71
83.63 K | 100.81
84.02 K | 101.38
84.67 K | 102.6
85.05 K | 103.37
85.71 K | 104.76
86.08 K | 105.1
87.11 K | 107.71
88.14 K | 109.06
89.18 K | 109.08
90.21 K | 110.43
91.24 K | 111.94
92.26 K | 112.49
93.29 K | 113.67
94.32 K | 115.2
95.34 K | 116.2
96.36 K | 117.24
97.39 K | 117.75
98.41 K | 119.69
99.44 K | 121.4
100.46 K | 120.13
101.48 K | 122.02
102.5 K | 123.38
103.53 K | 123.38
104.55 K | 124.78
105.57 K | 125.7
106.59 K | 125.94
107.6 K | 126.55
108.62 K | 127.46
109.63 K | 129.07
110.65 K | 130.3
111.66 K | 130.29
112.67 K | 130.99
113.68 K | 131.82
114.69 K | 132.86
115.71 K | 133.48
116.72 K | 133.98
117.73 K | 134.55
118.74 K | 135.11
119.75 K | 136.16
120.76 K | 136.83
121.76 K | 137.18
122.77 K | 138
123.77 K | 138.81
124.78 K | 139.92
125.78 K | 140.34
126.79 K | 141.2
127.78 K | 141.96
128.78 K | 142.63
129.78 K | 143.1
130.78 K | 144.73
131.78 K | 145.34
132.78 K | 145.71
133.78 K | 146.29
134.78 K | 147.05
135.77 K | 147.52
136.77 K | 148.34
137.77 K | 149.37
138.76 K | 149.38
139.75 K | 150.91
140.74 K | 152.15
141.74 K | 153
142.73 K | 153.45
143.7 K | 153.84
144.69 K | 154.76
145.68 K | 154.88
146.67 K | 155.86
147.65 K | 157.44
148.64 K | 158.13
149.63 K | 159.37
150.61 K | 159.11
151.59 K | 161.68
152.58 K | 161.75
153.56 K | 162.27
154.54 K | 162.57
155.52 K | 163.19
